For series [1], the system named is HCT116 cells. The series is described as follows: 5-fluorouracil IC50 in HCT116 cells alone or co-treated with sodium butyrate or 5-azacytidine. In kind it is cell-based, Human. The conditions noted are these: for induction of drug resistance (5-fluorouracil) in cancer cells: HCT116 and WiDr cells, co-treatment with 5-fluorouracil 72 hours, sodium butyrate 0.1 mM, 5-azacytidine 1 μM. The procedure:
(§1) Human colon cancer cell line LS174T (ATCC® CL-188™) and WiDr cells (ATCC CCL-218™) were maintained in alpha modification of Eagle's minimum essential medium (α-MEM) containing 1.5 g/L sodium bicarbonate and 10% fetal bovine serum (FBS). HCT116 cells (ATCC® CCL-247™) were cultured in McCoy's 5A medium containing 1.5 g/L sodium bicarbonate, 4.5 g/L glucose, 10 mM HEPES, 1.0 mM sodium pyruvate and 10% FBS. The NK92MI and NK92MI-CEA cells were cultured in α-MEM supplemented with 1.5 g/L sodium bicarbonate, 0.2 mM inositol, 0.02 mM folic acid, 0.01 mM 2-mercaptoethanol, 10% FBS and 12.5% horse serum. All cells were incubated at 37° C. in a humidified incubator with 5% CO2.
(§2) HCT116 and WiDr cells were co-treated with sodium butyrate (0.1 mM) or 5-azacytidine (1 μM) and different concentration of 5-fluorouracil (1.2, 2.4, 4.8, 9.6, and 19.2 μM) for 72 hours.

Series [2] has as its system WiDr cells. Description: 5-fluorouracil IC50 in WiDr cells alone or co-treated with sodium butyrate or 5-azacytidine. In kind it is cell-based. As to conditions: Homo sapiens, 72 hours, co-treatment sodium butyrate 0.1 mM or 5-azacytidine 1 μM, three independent experiments, read-out: IC50 of 5-fluorouracil (μM) Mean ± SD. On the procedure: as §1, §2
The subject of series [3] is CEA expression on cancer cells. Description: Determination of CEA expression on cancer cells by flow cytometry after drug treatment. In kind it is cell-based, Human. The conditions noted are these: data not shown. On the procedure:
The expression level of CEA on cancer cells were determined by flow cytometry. Cancer cells were stained with the human CEA-specific antibody followed by the analysis of flow cytometry. The fluorescence intensities of at least 10^5 cells were recorded and analyzed by software. Geometric mean was chosen as mean fluorescence intensity (MFI).
(§3) In this example, cancer cells were first treated with various types of anti-cancer drugs, before been subject to the treatment of NK92MI-CEA cells.
On the technique in general: A flow cytometer gives signals particle by particle.

Another series relates to cancer cells. The series is described as follows: Resistance of drug-treated cancer cells to chemotherapy and radiation therapy (data not shown). In kind it is cell-based.
From the text: as §3

The subject of series [4] is HCT116 cells. On the procedure: In this experiment, the cancer cells (i.e., HCT116 or WiDr cells) and the NK cells (i.e., NK92MI or NK92MI-CEA cells) respectively served as the target and effector cells. In brief, the target cells were co-incubated with the effector cells at various effector/target ratios (E/T), including 10:1, 5:1, 1:1, and 0.5:1, in a round-bottom 96-well culture plate. After incubating at 37° C. for 24 hours, 50 μl of the supernatant was isolated and mixed with 50 μl of CYTOTOX 96® Reagent in a flat-bottom 96-well enzymatic assay plate. The mixture was incubated at room temperature for 30 minutes followed by adding 50 μl stop solution (H2SO4) to stop the reaction. The absorbance was measured at 490 nm. The percentage of cytotoxicity for each effector:target cell ratio was calculated by the equation of,
(Experimental−culture medium background)−(Effector cell spontaneous release−culture medium background)−(Target spontaneous release−culture medium background)/(Target maximum release−volume correction control−Target spontaneous release−culture medium background)×100.

Series [5] concerns serum circulating CEA (cCEA). The series is described as follows: Serum circulating CEA (ELISA) in WiDr tumor-bearing SCID mice. In kind it is in vivo. As to conditions: FIG. 4C, control group 520 pg/ml.
In series [6] the test system is WiDr cells. The series is described as follows: WiDr xenograft in SCID mice, tumor volume. In kind it is in vivo. The conditions noted are these: SCID mice with WiDr tumors. On the procedure:
2×10^6 WiDr cells were subcutaneously implanted on the back of 9-weeks-old SCID mice. When tumors reached a volume of 100-200 mm^3, the mice were intraperitoneally administered with 200 mg/kg sodium butyrate for 5 consecutive days. Then, the mice were assigned into five groups: (1) control group, in which the mice were orally administrated with PBS every day, and intraperitoneally administrated with PBS every 4 days; (2) NaB group, in which the mice were orally administrated with 5 g/kg sodium butyrate every day, and intraperitoneally administrated with PBS every 4 days; (3) NK92MI group, in which the mice were orally administrated with PBS every day, and intraperitoneally administrated with NK92MI cells every 4 days; (4) NK92MI-CEA group, in which the mice were orally administrated with PBS every day, and intraperitoneally administration with NK92MI-CEA cells every 4 days; and (5) NK92MI-CEA+NaB group, in which the mice were orally administration with 5 g/kg sodium butyrate every day, and intraperitoneally administration with NK92MI-CEA every 4 days. Tumor volume of the mice was measured every 2-3 days, and tumor volumes on were calculated using the formula: length×(width)^2÷2 (*p<0.05). […]
The in vivo anti-tumor activity of NK92MI-CEA cells was evaluated in this example. […]

Where two headings read alike, the source gives them in different places.

On to `O=c1[nH]cc(F)c(=O)[nH]1` [5-fluorouracil], for which the IC50 with HCT116 cells [1] (Homo sapiens, HCT-116, HCT116 cells, 72 hours, co-treatment sodium butyrate 0.1 mM or 5-azacytidine 1 μM, three independent experiments, read-out: IC50 of 5-fluorouracil (μM) Mean ± SD) was 4.39 ± 3.1 µM; with WiDr cells [2], 4.67 ± 0.55 µM.

As for `Nc1ncn([C@@H]2O[C@H](CO)[C@@H](O)[C@H]2O)c(=O)n1` [5-azacytidine], the “CEA expression on cancer cells” value in series [3] is listed as “significantly increased CEA expression”. Moreover, the “induction of drug resistance (5-fluorouracil) in cancer cells” value in the series with HCT116 cells [1] is reported as “induced drug resistance in cancer cells”. Also, the “resistance of cancer cells to chemotherapy and radiation therapy” value in the series with cancer cells is “rendered the cancer cells resistant to the chemotherapy and radiation therapy”. Besides, the “enhancement of cytotoxic effect of NK92MI-CEA cells” value with HCT116 cells [4] was “significantly enhanced cytotoxic effect”.

As for `CCCC(=O)[O-].[Na+]` [sodium butyrate], the “CEA expression on cancer cells” value in series [3] is “significantly increased CEA expression”. Further, the “concentration of cCEA in the serum of mice” value in series [5] was determined as 990 pg/mL. The “induction of drug resistance (5-fluorouracil) in cancer cells” value in the series on HCT116 cells [1] is “induced drug resistance in cancer cells”. Further, the “resistance of cancer cells to chemotherapy and radiation therapy” value with cancer cells was “rendered the cancer cells resistant to the chemotherapy and radiation therapy”. Besides, the “enhancement of cytotoxic effect of NK92MI-CEA cells” value in the series on HCT116 cells [4] (HCT116 cells treated with agent, E/T ratio 10:1, 5:1, 1:1 or 0.5:1, versus control and untreated groups, FIGS. 3A, 3B) is given as “significantly enhanced cytotoxic effect”. Moreover, the “tumor growth (FIG. 4A)” value with WiDr cells [6] (NK cells i.p. every 4 days, sodium butyrate 5 g/kg orally every day) is listed as “obviously enhanced the anti-tumor effect of NK92MI-CEA cells”. Further, in the series with WiDr cells [6] (compared to control group), the “tumour growth / tumour size (FIG. 4B)” value was “did not obviously inhibit tumour growth”.

As a reminder, the IC50 is the concentration needed to halve the response being measured.

The values above are taken from patent US20200163995A1, “PHAR[…] AND USES THEREOF” (Johnpro Biotech Inc., priority 2017, published 2020).
